Entries after “also recorded” stand apart in the source; their conditions may differ. Like-named read-outs stand apart in the source and are kept apart here.
Key:
[1] = tested on: male wild type mice; assay type: in vivo; settings: for energy expenditure vs saline / food intake vs saline / respiratory exchange ratio (RER) vs saline / water intake vs saline: 5 nmols CJL-5-58 or 5 nmols each CJL-1-14 and CJL-1-80
Description: (§1) All experiments were performed in accordance with the Institutional Animal Care and Use Committee (IACUC) at the University of Minnesota. Female and male littermates with mixed background from C57BL/6J and 129/Sv inbred strains were 8 weeks old at the time of surgeries. Mice were individually housed after surgeries and for the remainder of the experiment. Mice were maintained on a 12 hr light/dark cycle (Lights off was at 11:59 AM) in a temperature controlled room (23-25° C.). In the nocturnal feeding paradigm, mice had free access to normal chow (Harlan Teklad 2018 Diet: 18.6% crude protein, 6.2% crude fat, 3.5% crude fiber, with energy density of 3.1 kcal/g). […] Mice had free access to tap water throughout all the experiments. The cannula placement validation studies and conventional cage studies were performed in standard mouse polycarbonate conventional cages provided by University of Minnesota's Research Animal Resources (RAR). Weekly cage changes were conducted by lab research staff.
(§2) Mice were anesthetize with a mixture of ketamine (100 mg/kg) and xylazine (5 mg/kg) and were positioned in a stereotaxic apparatus (David Kopf Instruments). A 26-gauge cannula (Cat# 81C315GS4SPC; PlasticsOne, Roanoke, Va.) was inserted in the lateral cerebral ventricle at the coordinates 1.0 mm lateral and 0.46 mm posterior to bregma and 2.3 mm ventral to the skull (Franklin, K. B. J. & Paxinos, G. The Mouse Brain in Stereotaxic Coordinates. (Academic Press, 1997)).
Each mouse was administered hPYY and saline on different days following a crossover design in the nocturnal feeding paradigm. In the nocturnal paradigm, compound is administered 2 hours prior to lights out with free access to food and water throughout the entire experiment. There was at least a 4 day washout period between administration to ensure that normal feeding patterns and body weight returned. Food intake and body weight were manually measured 2, 4, and 6 hours after hPYY or saline administration. A mouse with a validated cannula placement for the TSE cage experiments consumed at least 1.0 g more after hPYY administration compared to saline administration 4 hours post-administration.
(§3) As stated above, conventional cage experiments were performed in standard mouse polycarbonate conventional cages. […] All experiments followed a cross-over paradigm in which the mouse received saline and compound on different days with a washout period in between each treatment. Statistical analysis was performed using SPSS V23 software (IBM) using a multivariate general linear model followed by a Bonferroni's post hoc test. Results are presented as Mean±SEM. Statistically significant was considered p<0.05.

[2] = target: T1, mMC4R (Mus musculus, UniProt P56450); experiment: 125I-NDP-MSH competitive binding; settings: displacement of 125I-NDP-MSH; receptor subtype not printed at b283; read-out: binding affinity IC50
T1 construct: expressed in transfected cells
Description: NDP-MSH was radioiodinated with Na^125I utilizing the chloramine T procedure (26). […] HEK293 cells stably expressing wildtype mMC1R or mMC4R were maintained as described above. Transiently transfected HEK293 cells were used for binding experiments on the mMC3R. Transfection was performed in 10 cm plates using FuGene6 transfection reagent (15 μL/plate; Promega), Opti-Mem medium (1.7 mL/plate; Invitrogen), and mMC3R-Flag DNA (3.33 μg/plate) two days prior to binding experiment. One or two days preceding the competition experiments, cell were plated into 12-well tissue culture plates (Corning Life Sciences, Cat. # 353043) and grown to 90-100% confluency. On the day of the assay, media was removed gently. The cells were treated with a freshly diluted aliquot of non-labeled compound at the in well concentration being tested (ranging from 10^−12 to 10^−4 M as appropriate) in assay buffer (DMEM and 0.1% BSA) and a constant amount of ^1251-NDP-MSH (100,000 cpm/well) and were incubated at 37° C. for one hour. […] The radioactivity was quantified on WIZARD^2 Automatic Gamma Counter (PerkinElmer). […] The non-specific values used for calculations was radioactivity of the 10^−6 M unlabeled NDP-MSH. Data was analyzed by a nonlinear regression method using the PRISM program (v4.0; GraphPad Inc.) to generate and calculate dose-response curves and IC50 values.

[3] = tested on: male MC4RKO mice; experiment: ICV administration, conventional cages, male MC4RKO mice; assay type: in vivo
Description: as §1, §2, §3
In male MC4RKO mice, CJL-5-58 was administered at 5 nmols in both a nocturnal paradigm and a fasting-refeeding paradigm in standard conventional cages (FIG. 15). The dose was well handled in the nocturnal paradigm, but minimal effect was observed.

T1 sequence (P56450 whole entry): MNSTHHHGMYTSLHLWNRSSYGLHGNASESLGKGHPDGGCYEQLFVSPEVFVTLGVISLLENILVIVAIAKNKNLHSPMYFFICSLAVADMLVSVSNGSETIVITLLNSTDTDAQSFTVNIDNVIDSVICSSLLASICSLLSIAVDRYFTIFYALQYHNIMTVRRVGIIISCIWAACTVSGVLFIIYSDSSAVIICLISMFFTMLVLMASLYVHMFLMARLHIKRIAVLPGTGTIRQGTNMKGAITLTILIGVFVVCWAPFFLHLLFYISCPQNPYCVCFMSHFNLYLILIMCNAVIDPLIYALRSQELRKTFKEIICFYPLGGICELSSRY

Question: For `CC(=O)N[C@@H](Cc1cnc[nH]1)C(=O)N[C@H](Cc1ccccc1)C(=O)N[C@@H](CCCNC(=N)N)C(=O)N[C@@H](Cc1c[nH]c2ccccc12)C(=O)NCCCOCCOCCOCCCNC(=O)COCC(=O)N[C@@H](Cc1cnc[nH]1)C(=O)N[C@H](Cc1ccc2ccccc2c1)C(=O)N[C@@H](CCCNC(=N)N)C(=O)N[C@@H](Cc1c[nH]c2ccccc12)C(N)=O` [CJL-5-58, Ac-His-DPhe-Arg-Trp-(PEDG20)-His-DNal(2′)-Arg-Trp-NH2], which “RER, CJL-5-58 vs co-administration of CJL-1-14 and CJL-1-80” value ([1]; fasting paradigm) is on record?
Answer: significant differences in RER at the 2, 3, 6, and 7 hour time points

Question: And the activity vs saline ([1]; fasting paradigm)?
Answer: no significant differences were observed in activity

Question: And the “energy expenditure, CJL-5-58 vs co-administration of CJL-1-14 and CJL-1-80” value ([1]; fasting paradigm)?
Answer: significantly higher for CJL-5-58 at the 13 and 17 hour time points

Question: What about the “food intake, CJL-5-58 vs co-administration of CJL-1-14 and CJL-1-80” value ([1]; fasting paradigm) of the same compound?
Answer: significant differences in the food intake at 2 and 4 hour time point

Question: What about the “number of mice that died” value ([1]; fasting paradigm) of the same compound?
Answer: one

Question: What about the “energy expenditure reached after treatment” value ([1]; fasting paradigm, 5 nmol dose, baseline c.a. 12) of the same compound?
Answer: 17 to 19 kcal/h/kg

Question: And the “energy expenditure vs saline” value ([1]; fasting paradigm)?
Answer: significantly lower for the first 3 hours post-treatment; also recorded: increased energy expenditure is observed 15, 17, and 21 hours after compound administration

Question: And the “food intake vs saline” value ([1]; fasting paradigm)?
Answer: decrease in food intake up to 12 hours after administration

Question: What about the “respiratory exchange ratio (RER) vs saline” value ([1]; fasting paradigm) of the same compound?
Answer: significantly lower RER was observed for the first 9 hours and at 17 hours

Question: What about the “water intake vs saline” value ([1]; fasting paradigm) of the same compound?
Answer: decrease in water intake was observed with 5 nmols of CJL-5-58 at time points 4, 6, 8, 10, and 12 hours

Question: And the “number of adverse reactions” value ([1]; fasting paradigm, within 30 minutes of injection)?
Answer: four

Question: And the “time to recovery from adverse reactions” value ([1]; mice experiencing adverse reactions)?
Answer: < 1 h

Question: And the activity vs saline ([1]; nocturnal paradigm)?
Answer: increase in activity was observed during the first 5 hours after administration

Question: And the “any parameter, CJL-5-58 vs co-administration of CJL-1-14 and CJL-1-80” value ([1]; nocturnal paradigm)?
Answer: no significant differences were observed for any parameter

Question: And the “number of adverse reactions” value ([1]; nocturnal paradigm)?
Answer: 2

Question: And the “number of mice that died” value ([1]; nocturnal paradigm)?
Answer: one

Question: And the “energy expenditure vs saline” value ([1]; nocturnal paradigm)?
Answer: increase in energy expenditure was observed 5, 13, 15, and 16 hours after treatment

Question: What about the “food intake vs saline” value ([1]; nocturnal paradigm) of the same compound?
Answer: no significant effect was observed

Question: And the “respiratory exchange ratio (RER) vs saline” value ([1]; nocturnal paradigm)?
Answer: significantly lowered RER values only until 2 hours after administration

Question: What about the “water intake vs saline” value ([1]; nocturnal paradigm) of the same compound?
Answer: no difference in water intake was observed

Question: And the IC50 [2]?
Answer: 14 nM

Question: What about the toxicity ([3]; ICV 2.5 to 5 nmols, conventional cages) of the same compound?
Answer: Some toxicity was observed

Question: And the adverse reactions ([3]; fasting-refeeding, 5 nmols)?
Answer: some signs of adverse reactions

Question: What about the “body weight vs saline” value ([3]; fasting-refeeding, 5 nmols) of the same compound?
Answer: no effect on mouse body weight

Question: What about the “food intake vs saline” value ([3]; fasting-refeeding, 5 nmols) of the same compound?
Answer: decreased food intake at 2, 4, 6, 8 and 24 hours after compound administration

Question: What about the “body weight vs saline” value ([3]; nocturnal paradigm, 5 nmols) of the same compound?
Answer: significant increase in body weight 6 hours after compound administration

Question: What about the “food intake vs saline” value ([3]; nocturnal paradigm, 5 nmols) of the same compound?
Answer: immediate reduction in food intake 2 hours after compound administration

Question: What about the tolerability ([3]; nocturnal paradigm, 5 nmols) of the same compound?
Answer: well handled; also recorded: looked healthy

Reference: patent US20180360972A1, “THERAPEUTIC COMPOUNDS” (REGENTS OF THE UNIVERSITY OF MINNESOTA, priority 2017, published 2018)
